Patent publication US20250313563A1, “GLYCOGEN SYNTHASE KINASE 3 INHIBITORS AND USES THEREOF” (The Broad Institute, Inc., priority 2022, published 2025)
Like-named read-outs stand apart in the source and are kept apart here.

How the values were obtained:
[1] = biological target: GSK3α (GST-full length GSK3α) (Homo sapiens (Human), UniProt P49840); test: GSK3α TR-FRET kinase assay; assay type: biochemical
How it was run: (§1)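 Compound preincubated 30 min, then 1 nM GST-full-length GSK3α or GSK3b run 100 min at ambient temperature with 200 nM biotinylated, S645-prephosphorylated glycogen synthase 631-650 peptide in Tris pH 7.5, MgCl2, DTT, BSA, 1% DMSO. ATP 4 μM (α) or 2 μM (β), or 1 mM. EDTA-quenched; Tb-anti-pSer641/streptavidin-d2 TR-FRET 665/615 ratio gave IC50.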

[2] = biological target: GSK3b (GST-full length GSK3b) (Homo sapiens (Human), UniProt P49841); test: GSK3b TR-FRET kinase assay; assay type: biochemical
Chain of GSK3b (GST-full length GSK3b) (P49841 whole entry): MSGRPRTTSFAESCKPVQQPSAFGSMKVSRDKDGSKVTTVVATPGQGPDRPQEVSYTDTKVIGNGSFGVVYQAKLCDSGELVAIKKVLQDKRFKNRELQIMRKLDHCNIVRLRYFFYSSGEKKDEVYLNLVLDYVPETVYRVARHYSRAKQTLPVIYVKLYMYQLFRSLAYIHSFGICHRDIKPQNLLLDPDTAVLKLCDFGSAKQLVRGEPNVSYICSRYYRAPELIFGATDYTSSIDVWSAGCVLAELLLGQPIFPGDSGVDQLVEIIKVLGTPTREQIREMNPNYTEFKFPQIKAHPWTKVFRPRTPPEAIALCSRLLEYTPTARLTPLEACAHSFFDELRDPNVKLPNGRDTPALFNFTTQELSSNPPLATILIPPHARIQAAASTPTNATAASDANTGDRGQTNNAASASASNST
How it was run: as §1

[3] = 1 nM GSK3α, 4 μM ATP, 30 minute preincubation, Table 16, read-out: GSK3-A TR-FRET BIOCHEMICAL (TR-FRET), IC50
[4] = 1 nM GSK3b, 2 μM ATP, 30 minute preincubation, Table 16, read-out: GSK3-B TR-FRET BIOCHEMICAL (TR-FRET), IC50
[5] = GSK3-A (TR-FRET 1 mM ATP), GMean, IC50, 1 mM ATP, geometric mean
[6] = GSK3-B (TR-FRET 1 mM ATP), GMean, IC50, 1 mM ATP, geometric mean
[7] = read-out: GSK3-A (TR-FRET 1 mM ATP), GMean, IC50, 1 mM ATP, geometric mean
[8] = read-out: GSK3-B (TR-FRET 1 mM ATP), GMean, IC50, 1 mM ATP, geometric mean

Chain of GSK3α (GST-full length GSK3α) (P49840 whole entry): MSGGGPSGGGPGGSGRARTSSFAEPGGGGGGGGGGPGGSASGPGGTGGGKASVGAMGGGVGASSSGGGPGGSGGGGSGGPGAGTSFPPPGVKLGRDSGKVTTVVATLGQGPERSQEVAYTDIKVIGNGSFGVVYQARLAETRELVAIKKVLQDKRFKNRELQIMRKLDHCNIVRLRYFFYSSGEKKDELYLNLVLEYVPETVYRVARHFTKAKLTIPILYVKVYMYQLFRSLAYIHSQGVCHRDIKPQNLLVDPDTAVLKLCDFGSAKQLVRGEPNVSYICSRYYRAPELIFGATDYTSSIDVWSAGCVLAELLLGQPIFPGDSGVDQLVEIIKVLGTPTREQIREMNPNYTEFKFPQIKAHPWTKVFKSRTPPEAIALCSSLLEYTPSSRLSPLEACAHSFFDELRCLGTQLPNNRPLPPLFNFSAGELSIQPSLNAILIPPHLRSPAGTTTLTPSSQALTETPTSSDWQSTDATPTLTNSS

Compound	IC50 [1, 3] [nM]	IC50 [2, 4] [nM]	also measured
CCC1(c2cccc(-c3cn(C)nc3C)c2)C2=C(CC3(CCS(=O)(=O)CC3)NC2=O)Nc2n[nH]cc21 (centres unmarked) [Compound 950813]	≤ 100	100 to 1000	
CC1(C)CC(=O)C2=C(Nc3n[nH]cc3C23CCN(S(=O)(=O)C2CC2)CC3)C1F (centres unmarked) [Compound 950814]			IC50 ([1]; 1 nM GSK3α, 4 μM ATP, 30 minute preincubation, Table 16, read-out: GSK3-A TR-FRET BIOCHEMICAL (TR-FRET)): ≤ 100 nM; IC50 ([2]; 1 nM GSK3b, 2 μM ATP, 30 minute preincubation, Table 16, read-out: GSK3-B TR-FRET BIOCHEMICAL (TR-FRET)): ≤ 100 nM
CCC1(c2cccc(-c3c(C)nnn3C)c2)C2=C(CC(C)(C)C2=O)Nc2n[nH]cc21 (centres unmarked) [Compound 950815]	100 to 1000	1000 to 5000	
CC[C@]1(c2cccc(C3CC3)c2)C2=C(CC(C)(C)NC2=O)Nc2n[nH]cc21 [Compound 950817]	> 5000	> 5000	
CCC1(c2cccc(-c3cc(C)nn3C)c2)C2=C(CC(C)(C)C2=O)Nc2n[nH]cc21 (centres unmarked) [Compound 950818]	100 to 1000	1000 to 5000	
CC[C@@]1(c2cccc(-c3cnn(C)c3)c2)C2=C(CC(C)(C)C2=O)Nc2n[nH]cc21 [Compound 950819]	100 to 1000	1000 to 5000	
CC[C@]1(c2cccc(-c3ccnn3-c3ccc(F)cc3)c2)C2=C(CC(C)(C)NC2=O)Nc2n[nH]cc21 [Compound 950822]	100 to 1000	100 to 1000	
CC[C@]1(c2cccc(-c3ccnn3C3CC3(F)F)c2)C2=C(CC(C)(C)NC2=O)Nc2n[nH]cc21 (some centres unmarked) [Compound 950824]	≤ 100	≤ 100	IC50 [1, 5]: 100 to 1000 nM; IC50 [2, 6]: 100 to 1000 nM
CCC1(c2cccc(-c3c(C)cnc4ccccc34)c2)C2=C(CC(C)(C)NC2=O)Nc2n[nH]cc21 (centres unmarked) [Compound 950825]	> 5000	> 5000	
CCC1(c2cccc(-c3cnn(C)c3)c2)C2=C(CC(C)(C)C2=O)Nc2n[nH]cc21 (centres unmarked) [Compound 950826]	> 5000	> 5000	
CC[C@@]1(c2cccc(-c3cc(C)nn3C)c2)C2=C(CC(C)(C)C2=O)Nc2n[nH]cc21 [Compound 950827]	> 5000	> 5000	
CC[C@]1(c2cccc(C3CC3)c2)C2=C(CC(C)(C)NC2=O)Nc2n[nH]cc21 [Compound 950828]	≤ 100	100 to 1000	IC50 [1, 7]: 1000 to 5000 nM; IC50 [2, 8]: > 5000 nM
CC[C@]1(c2cccc(-c3cnn4cccnc34)c2)C2=C(CC(C)(C)NC2=O)Nc2n[nH]cc21 [Compound 950830]	≤ 100	100 to 1000	
CC[C@@]1(c2cccc(C(F)(F)F)c2)C2=C(CCC2=O)Nc2n[nH]cc21 [Compound 951565]	≤ 100	100 to 1000	
CC[C@]1(c2cccc(N(C)c3ncccn3)c2)C2=C(CC(C)(C)NC2=O)Nc2n[nH]c(Cl)c21 [Compound 951592]	> 5000	> 5000	
CCC1(c2cccc(C(F)(F)F)c2)C2=C(CCN(c3ncn(C)c3C)C2=O)Nc2n[nH]cc21 (centres unmarked) [Compound 951598]	100 to 1000	> 5000	
CCC1(c2cccc(-c3ccncc3F)c2)C2=C(CC(C)(C)NC2=O)Nc2n[nH]c(C(F)F)c21 (centres unmarked) [Compound 951599]	100 to 1000	100 to 1000	
CCC1(c2cccc(Oc3ncccn3)c2)C2=C(CC(C)(C)CC2=O)Nc2n[nH]c(C(F)(F)F)c21 (centres unmarked) [Compound 951604]	≤ 100	100 to 1000	
CC[C@@]1(c2cccc(Oc3ncccn3)c2)C2=C(CC(C)(C)NC2=O)Nc2n[nH]c(Cl)c21 [Compound 951605]	1000 to 5000	> 5000	
CC[C@]1(c2cccc(Oc3ncccn3)c2)C2=C(CC(C)(C)NC2=O)Nc2n[nH]c(C(F)(F)F)c21 [Compound 951607]	≤ 100	≤ 100	IC50 [1, 7]: ≤ 100 nM; IC50 [2, 8]: 100 to 1000 nM
CC[C@]1(c2cccc(-c3ccncc3F)c2)C2=C(CC(C)(C)NC2=O)Nc2n[nH]c(C(F)F)c21 [Compound 951612]	≤ 100	≤ 100	IC50 [1, 7]: 100 to 1000 nM; IC50 [2, 8]: 1000 to 5000 nM
CC[C@@]1(c2cccc(N(C)c3ncccn3)c2)C2=C(CC(C)(C)NC2=O)Nc2n[nH]c(Cl)c21 [Compound 951618]	100 to 1000	1000 to 5000	
CC(C)S(=O)(=O)N1CCC2(CC1)C1=C(Nc3n[nH]cc32)[C@H](F)C(C)(C)CC1=O [Compound 951701]			IC50 ([1]; 1 nM GSK3α, 4 μM ATP, 30 minute preincubation, read-out: GSK3-A TR-FRET BIOCHEMICAL (TR-FRET), IC50): ≤ 100 nM; IC50 [1, 5]: 100 to 1000 nM; IC50 ([2]; 1 nM GSK3b, 2 μM ATP, 30 minute preincubation, read-out: GSK3-B TR-FRET BIOCHEMICAL (TR-FRET), IC50): ≤ 100 nM; IC50 [2, 6]: 1000 to 5000 nM
